# Experimental data reported in patent US7763596B2, “Selective glucocorticoid receptor agonists” (The University of Manchester, priority 2000, dated 2010).
# Legend:
# IL-8 = assay: Repression of endogenous IL-8 in A549s; type: cell-based, human; details: A549 cells; compound G at 100 nM, p=0.0076
# Excerpt: The A549 cell line (ECACC:86012804) is derived from the human lung epithelial cells from a carcinoma. This cell line contains functional endogenous GR and is stimulated by Tumour Necrosis Factor (TNF) to produce IL-8.
# In this assay TNF was used to stimulate NFkB activity in a cell line that expressed endogenous GR. The ability of NFkB to induce IL-8 gene transcription could then be repressed by GR in a ligand dependent manner and, therefore, used to measure transrepression.
# COS7 cells were transfected with 3 μg NRE-Luc per 10 cm tissue culture dish. The cells were plated out in to 24 well plates after transfection and left for 18 hours to recover before the steroids of FIGS. 1 and 2A were added. After incubation for 3 hours with the steroids, TNF was added to the samples and after another 15 hours an IL-8 assay (R&D systems) was performed on the cell supernatants according to the manufacturers instructions. Briefly, triplicates of 100 μl of a 1:2 dilution of cell supernatant and 100 μl of a known dilution series of IL-8 were added to the wells of a microtitre plate coated with a monoclonal IL-8 antibody, the samples were incubated with a polyclonal biotinylated IL-8 antibody for 1 hour at room temperature and washed. Streptavidin horse radish peroxidase solution was then added to all wells and incubated for 30 mins before being washed. Tetramethyl benzidine (TMB; a chromagen) was added to all the wells and incubated in the dark for 10 mins, the reaction was stopped by the addition of H2SO4 and the absorbance of each well was read on a spectrophotometer using 450 nm as the primary wavelength. Regression analysis was performed on the standard data and the unknowns were expressed as pg/ml of IL-8 in comparison to the standards.
# CEM-C7A cells = assay: Apoptosis assay in CEM-C7A cells (viable cell count, MTS); type: cell-based, human; details: CEM C7A cells, 100 nM, three day incubation
# Protocol: The CEM-C7A cell line is a steroid sensitive clone of the CCRF-CEM cell line (ECACC 85112105). This is a T lymphoblastoid cell line with functional endogenous GR.
# Apoptosis (programmed cell death) is mediated by a protein called Bax the transcription of which is primarily controlled by the GR in a ligand dependant manner. To measure the ability of a GR ligand to effect apoptosis a suitable cell line was incubated with ligand and a viable cell count was performed after three days.
# CEM-C7A cells were plated out on to a 96well plate at 5×10^5/well. The steroids of FIGS. 1 and 2A were added immediately to generate a final concentration of 100 nM. After a three day incubation the live cell number in each well was assessed using Celltiter 96 Aqueous Non-Radioactive Cell Proliferation Assay (Promega). This assay is a calorimetric method for determining the number of viable cells in proliferation or chemosensitivity assays.
# Briefly, the assay is composed of solutions of a novel tetrazolium compound (3-(4,5-dimethylthiazol-2-yl)-5-(3-carboxymethoxyphenyl)-2-(4-sulfophenyl)-2H-tetrazolium, MTS) and an electron coupling reagent (phenazine methosulfate; PMS). MTS is bioreduced by cells into a formazan product that is soluble in tissue culture medium. The absorbance of the formazan at 490 nm can be measured directly from 96 well assay plates without additional processing. The conversion of MTS into aqueous, soluble formazan is accomplished by dehydrogenase enzymes found in metabolically active cells. The quantity of formazan product as measured by the amount of 490 nm absorbance is directly proportional to the number of living cells in culture.
# [1] = molecular target: T1, progesterone receptor (PRB) (Homo sapiens, UniProt P06401); assay: Progestogen activity assay using progesterone receptor transactivation; type: cell-based; details: 100 nM; for PRB reporter gene activation: AH3-luc reporter, COS7
# T1 construct: expressed in transfected cells; host or cells: COS 7
# T1 sequence (P06401 1-933): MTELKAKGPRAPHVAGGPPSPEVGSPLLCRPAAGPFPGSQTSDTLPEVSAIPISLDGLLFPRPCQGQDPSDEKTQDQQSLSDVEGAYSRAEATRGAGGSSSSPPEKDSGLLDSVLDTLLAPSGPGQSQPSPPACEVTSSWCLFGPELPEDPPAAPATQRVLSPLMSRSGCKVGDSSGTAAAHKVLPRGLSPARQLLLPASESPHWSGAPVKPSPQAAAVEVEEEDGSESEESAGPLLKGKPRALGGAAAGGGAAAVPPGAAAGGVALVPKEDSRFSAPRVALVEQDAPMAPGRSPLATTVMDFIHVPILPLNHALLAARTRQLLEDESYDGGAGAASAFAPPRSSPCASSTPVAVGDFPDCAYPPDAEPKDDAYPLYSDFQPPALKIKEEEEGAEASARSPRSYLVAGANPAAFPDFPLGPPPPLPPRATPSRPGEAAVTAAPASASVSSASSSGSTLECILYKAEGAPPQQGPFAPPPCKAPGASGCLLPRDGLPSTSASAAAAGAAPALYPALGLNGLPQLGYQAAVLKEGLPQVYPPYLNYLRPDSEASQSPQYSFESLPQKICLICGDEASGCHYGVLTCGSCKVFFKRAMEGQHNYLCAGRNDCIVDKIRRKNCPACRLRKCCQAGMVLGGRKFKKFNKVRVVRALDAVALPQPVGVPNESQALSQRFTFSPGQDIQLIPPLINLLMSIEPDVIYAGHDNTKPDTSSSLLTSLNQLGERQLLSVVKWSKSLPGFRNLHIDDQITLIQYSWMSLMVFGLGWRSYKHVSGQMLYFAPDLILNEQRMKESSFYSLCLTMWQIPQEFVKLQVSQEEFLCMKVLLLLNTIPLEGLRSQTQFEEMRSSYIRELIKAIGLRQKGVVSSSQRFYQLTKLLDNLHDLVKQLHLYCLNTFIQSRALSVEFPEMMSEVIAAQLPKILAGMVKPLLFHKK
# Excerpt: As the GR LBD has strong homology with the PR LBD there is a chance that any of the tested steroids of FIGS. 1 and 2A that activate one of these receptors may also activate the other. The presence of illegitimate progestogen activity associated with the steroids of FIGS. 1 and 2A was examined using a transactivation assay with the PR instead of the GR.
# The PR was artificially expressed in a cell line lacking endogenous PR and a GRE “driving” a luciferase reporter gene was used to measure ligand dependent activation.
# COS7 cells were transfected with 1 μg pSEO-PRB and 3 μg AH3-Luc per 10 cm tissue culture dish. The cells were plated out in to 24 well plates after transfection and the steroids of FIGS. 1 and 2A were added immediately to generate a final concentration of 100 nM. After 18 hour incubation the cells were lysed and a luciferase assay was performed.
Compound,repression of IL-8 production after TNF activation (IL-8),induction of apoptosis (CEM-C7A cells),PRB reporter gene activation [1],PRB activation relative to the activation generated by progesterone [1]
CC1CC2C3CCC4=CC(=O)C=CC4(C)C3(F)C(O)CC2(C)C12OC(C)(C)OCC2=O (stereo not drawn) [Compound A],exhibited transrepression,most potent inducers of apoptosis,–,–
CC1CC2C3CCC4=CC(=O)C=CC4(C)C3(F)C(O)CC2(C)C1(O)C(=O)COC(=O)c1ccc(F)cc1 (stereo not drawn) [Compound D],exhibited transrepression,–,–,–
CCCNC(=O)C1(O)C(C)CC2C3CCC4=CC(=O)C=CC4(C)C3(F)C(O)CC21C (stereo not drawn) [Compound G],repressed IL-8 production better than dexamethasone,apoptosis was induced,–,–
Cc1ccc(NC(=O)C2(O)C(C)CC3C4CCC5=CC(=O)C=CC5(C)C4(F)C(O)CC32C)cc1 (stereo not drawn) [Compound O],–,–,slightly increased reporter gene activation compared to that of dexamethasone,–
CCCCCCNC(=O)OCC(=O)C1(O)C(C)CC2C3CCC4=CC(=O)C=CC4(C)C3(F)C(O)CC21C (stereo not drawn) [Compound T],–,–,slightly increased reporter gene activation compared to that of dexamethasone,–
CC1CC2C3CCC4=CC(=O)C=CC4(C)C3(F)C(O)CC2(C)C1(O)C(=O)NCCCO (stereo not drawn) [L],–,–,slightly increased reporter gene activation compared to that of dexamethasone,~40%
CC1CC2C3CCC4=CC(=O)C=CC4(C)C3(F)C(O)CC2(C)C1(O)C(=O)NCCC(=O)O (stereo not drawn) [Q],–,not,slightly increased reporter gene activation compared to that of dexamethasone,–
CCCOC(=O)C1(O)C(C)CC2C3CCC4=CC(=O)C=CC4(C)C3(F)C(O)CC21C (stereo not drawn) [R],–,–,slightly increased reporter gene activation compared to that of dexamethasone,–
